Test results taken from US12145927B2 (BRISTOL-MYERS SQUIBB COMPANY, priority 2018, dated 2024).
pIC50: −log10 of the molar value.

Experiments:
[1] = molecular target: T1, indoleamine 2,3-dioxygenase (IDO) (Homo sapiens, UniProt P14902); test: HeLa cell-based indoleamine 2,3-dioxygenase (IDO) assay (IDO1 HeLa); settings: HeLa cells, IFNγ 25 ng/mL, 48 hour incubation; kynurenine by absorbance at 480 nm
T1 construct: replaced with media containing IFNγ (#285-IF/CF, R&D Systems) at a final concentration of 25 ng/mL; endogenous in cells; host or cells: HeLa (ATCC CCL-2), IFNγ-stimulated
T1 sequence (P14902 whole entry): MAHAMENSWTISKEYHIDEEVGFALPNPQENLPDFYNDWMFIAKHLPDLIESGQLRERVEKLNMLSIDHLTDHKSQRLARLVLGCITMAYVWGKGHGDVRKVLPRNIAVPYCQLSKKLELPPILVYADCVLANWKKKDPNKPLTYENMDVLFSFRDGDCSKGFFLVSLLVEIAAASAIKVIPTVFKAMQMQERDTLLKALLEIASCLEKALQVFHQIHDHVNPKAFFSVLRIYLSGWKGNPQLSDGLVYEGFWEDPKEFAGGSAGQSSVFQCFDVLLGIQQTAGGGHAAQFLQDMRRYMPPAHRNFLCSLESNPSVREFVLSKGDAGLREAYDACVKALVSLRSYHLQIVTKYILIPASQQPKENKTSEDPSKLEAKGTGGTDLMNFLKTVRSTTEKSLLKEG
Method: Assessment of inhibitor activity in HeLa cell-based indoleamine 2,3-dioxygenase (IDO) assay:
HeLa (ATCC® CCL-2) cells were obtained from the ATCC® and cultured in Dulbecco's Modified Eagle Medium supplemented with 4.5 g/L glucose, […] (#10-013-CV, Corning), 2 mM L-alanyl-L-glutamine dipeptide (#35050-061, Gibco), 100U/mL penicillin, 100 μg/mL streptomycin (#SV30010, HyClone) and 10% fetal bovine serum (#SH30071.03 HyClone). Cells were maintained in a humidified incubator at 37° C. in 5% CO2.
IDO activity was assessed as a function of kynurenine production as follows: HeLa cells were seeded in a 96-well culture plate at a density of 5,000 cells/well and allowed to equilibrate overnight. After 24 hours, the media was aspirated and replaced with media containing IFNγ (#285-IF/CF, R&D Systems) at a final concentration of 25 ng/mL. A serial dilution of each test compound was added to the cells in a total volume of 200 μL of culture medium. After a further 48 hour incubation, 170 μL of supernatant was transferred from each well to a fresh 96-well plate. 12.1 μL of 6.1N trichloroacetic acid (#T0699, Sigma-Aldrich) was added to each well and mixed, followed by incubation at 65° C. for 20 minutes to hydrolyze N-formylkynurenine, the product of indoleamine 2,3-dioxygenase, to kynurenine. The reaction mixture was then centrifuged for 10 mins at 500×g to sediment the precipitate. 100 μL of the supernatant was transferred from each well to a fresh 96-well plate. 100 μl of 2% (w/v) p-dimethylaminobenzaldehyde (#15647-7, Sigma-Aldrich) in acetic acid (#A6283, Sigma-Aldrich) was added to each well mixed and incubated at RT for 20 mins. Kynurenine concentrations were determined by measuring absorbance at 480 nm and calibrating against an L-kynurenine (#K8625, Sigma-Aldrich) standard curve using a SPECTRAMAX® M2e microplate reader (Molecular Devices). The percentage activity at each inhibitor concentration was determined and IC50 values assessed using nonlinear regression.

human IDO1 = molecular target: T2, human IDO1 (Homo sapiens, UniProt P14902); test: IDO inhibition assay in human IDO1/HEK293 cells (IDO1 HEK Human); type: cell-based; settings: HEK293 cells stably expressing human IDO1; 20 hours incubation; absorbance at 490 nm after Ehrlich reagent
T2 construct: expressed in transfected cells
T2 sequence (P14902 whole entry): as above
In short: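 HEK293 clones stably expressing human IDO1 (10,000 cells/well, phenol red-free RPMI, 10% FBS) were treated with compound for 20 hours at 37° C. After 0.2% TCA and 30 min at 50° C., kynurenine was read with Ehrlich reagent at 490 nm. IC50 was normalised to DMSO (0%) and 500 nM reference standard (100%).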

| SMILES | pIC50 [1] | pIC50 (human IDO1) |
| --- | --- | --- |
| CCc1ccc(NC(=O)Nc2cc(-c3ccccc3-c3nnn[nH]3)cc3c2OCC=CC3CCC(F)(F)F)cc1 (racemic) [Example 107, (+/−)-1-(7-(2-(1H-tetrazol-5-yl)phenyl)-5-(3,3,3-trifluoropropyl)-2,5-dihydrobenzo[b]oxepin-9-yl)-3-(4-ethylphenyl)urea] | 7.84 |  |
| Cc1ccc(NC(=O)Nc2cc(-c3cc(F)ccc3C(=O)O)cc3c2OCCCC3c2ccccc2)cc1 (racemic) [Example 108, (+/−)-4-fluoro-2-(5-phenyl-9-(3-(p-tolyl)ureido)-2,3,4,5-tetrahydrobenzo[b]oxepin-7-yl)benzoic acid] | 6.79 |  |
| Cc1ccc(NC(=O)Nc2cc(-c3ccccc3-c3nnn[nH]3)cc3c2OC[C@@H](C)C[C@H]3c2ccccc2)cc1 (racemic) [Example 109, (+/−)-1-((cis)-7-(2-(1H-tetrazol-5-yl)phenyl)-3-methyl-5-phenyl-2,3,4,5-tetrahydrobenzo[b]oxepin-9-yl)-3-(p-tolyl)urea] | 8.23 |  |
| Cc1ccc(NC(=O)Nc2cc(-c3ccccc3-c3nnn[nH]3)cc3c2OCC(F)(F)CC3c2ccccc2)cc1 (racemic) [Example 110, (+/−) 1-(7-(2-(1H-tetrazol-5-yl)phenyl)-3,3-difluoro-5-phenyl-2,3,4,5-tetrahydrobenzo[b]oxepin-9-yl)-3-(p-tolyl)urea] | 7.61 | 7.30 |
| Cc1ccc(NC(=O)Nc2cc(-c3ccccc3-c3nnn[nH]3)cc3c2OCCCC3C(C)C)cc1 (single isomer, unassigned) [24 (En. 1), 1-(7-(2-(1H-tetrazol-5-yl)phenyl)-5-isopropyl-2,3,4,5-tetrahydrobenzo[b]oxepin-9-yl)-3-(p-tolyl)urea] | 7.54 | 9.01 |
| Cc1ccc(NC(=O)Nc2cc(-c3ccccc3-c3nnn[nH]3)cc3c2OCCCC3C(C)C)cc1 (single isomer, unassigned) [24 (En. 2), 1-(7-(2-(1H-tetrazol-5-yl)phenyl)-5-isopropyl-2,3,4,5-tetrahydrobenzo[b]oxepin-9-yl)-3-(p-tolyl)urea] | 6.79 | 8.20 |
| Cc1ccc(NC(=O)Nc2cc(-c3ccccc3-c3nnn[nH]3)cc3c2OCCCC3C2CC2)cc1 (single isomer, unassigned) [36 (En. 1), 1-(7-(2-(1H-tetrazol-5-yl)phenyl)-5-cyclopropyl-2,3,4,5-tetrahydrobenzo[b]oxepin-9-yl)-3-(p-tolyl)urea] | 7.83 | 7.98 |
| Cc1ccc(NC(=O)Nc2cc(-c3ccccc3-c3nnn[nH]3)cc3c2OCCCC3C2CC2)cc1 (single isomer, unassigned) [36 (En. 2), 1-(7-(2-(1H-tetrazol-5-yl)phenyl)-5-cyclopropyl-2,3,4,5-tetrahydrobenzo[b]oxepin-9-yl)-3-(p-tolyl)urea] | 8.44 | 8.62 |
| COCC(CC(=O)O)c1cc(Nc2ccc(C#N)cc2)c2c(c1)C(C1CC1)CCCO2 (single isomer, unassigned) [131 (dia. 2), 3-(9-(4-Cyanophenylamino)-5-cyclopropyl-2,3,4,5-tetrahydrobenzo[b]oxepin-7-yl)-4-methoxybutanoic acid] | 8.68 | 8.70 |
| Cc1ccc(NC(=O)Nc2cc(-c3ccccc3-c3noc(=O)[nH]3)cc3c2OCCCC3c2ccccc2)cc1 (single isomer, unassigned) [Example 67, 1-(7-(2-(5-oxo-4,5-dihydro-1,2,4-oxadiazol-3-yl)phenyl)-5-phenyl-2,3,4,5-tetrahydrobenzo[b]oxepin-9-yl)-3-(p-tolyl)urea] | 9.00 | 8.96 |
| Fc1cc(Nc2cc(-c3ccccc3-c3nnn[nH]3)cc3c2OCCCC3c2ccccc2)ccc1Cl (single isomer, unassigned) [Example 72, 7-(2-(1H-tetrazol-5-yl)phenyl)-N-(4-chloro-3-fluorophenyl)-5-phenyl-2,3,4,5-tetrahydrobenzo[b]oxepin-9-amine] | 7.62 |  |
| Cc1ccc(-c2nnn[nH]2)c(-c2cc(Nc3ccc4nc(C)sc4c3)c3c(c2)C(c2ccccc2)CCCO3)c1 (single isomer, unassigned) [Example 74, 2-methyl-N-(7-(5-methyl-2-(1H-tetrazol-5-yl)phenyl)-5-phenyl-2,3,4,5-tetrahydrobenzo[b]oxepin-9-yl)benzo[d]thiazol-6-amine] | 8.29 | 8.11 |
| Cc1ccc(NC(=O)Nc2cc(-c3ccccc3-c3nn[nH]n3)cc3c2OCCCC3c2ccccc2)cc1 (stereo not shown) [Example 1, 1-(7-(2-(1H-tetrazol-5-yl)phenyl)-5-phenyl-2,3,4,5-tetrahydrobenzo[b]oxepin-9-yl)-3-(p-tolyl)urea] | 7.86 | 7.73 |
